Results reported in ChEMBL document CHEMBL1153185, “Two novel neo-clerodane diterpenoids from Scutellaria barbata” (Bioorg Med Chem Lett, 2010).
pIC50: −log10 of the molar value. Where a name gives a salt, the structure may show the parent alone. Activity calls are given as the source filed them. No cut-off for these calls is given here.

How the values were obtained:
Assay type in all cases: functional, cell-based
HL-60 = assay: Cytotoxicity against human HL60 cells by MTT assay
Lewis lung carcinoma = assay: Cytotoxicity against mouse LLC by MTT assay
MCF7 = assay: Cytotoxicity against human MCF7 cells by MTT assay

Row | Structure (SMILES) | pIC50 (HL-60) | Activity (HL-60) | Activity (Lewis lung carcinoma) | Activity (MCF7)
1 | COc1cccc2c1C(=O)c1c(O)c3c(c(O)c1C2=O)C[C@@](O)(C(=O)CO)C[C@@H]3O[C@H]1C[C@H](N)[C@H](O)[C@H](C)O1 [DOXORUBICIN HYDROCHLORIDE] | 6.74 | – | – | –
2 | C[C@@]12[C@@H](OC(=O)c3cccnc3)[C@H](OC(=O)c3ccccc3)[C@](C)(O)[C@](C)(/C=C/C3=CC(=O)OC3)[C@H]1CC=C[C@]2(C)O | – | inactive | inactive | inactive
3 | CC(=O)O[C@@H](CC1=CC(=O)OC1)[C@]1(C)[C@H]2CCC=C(C)[C@]2(C)[C@@H](OC(=O)c2cccnc2)[C@H](OC(=O)c2ccccc2)[C@]1(C)O [BARBATELLARINES B] | 4.38 | – | – | –
